The values below come from article PMC10744608, “Simplified Synthesis of Renieramycin T Derivatives to Target Cancer Stem Cells via β-Catenin Proteasomal Degradation in Human Lung Cancer” (Marine Drugs, 2023).

In general, IC50 refers to the concentration that inhibits the measured activity by half. A lower IC50 goes with inhibition by little substance.

The test system of test [1] is A549 cells. The test can be described thus: MTT cell viability assay. The class given is cell-based, human. The conditions noted are these: A549, 24 h treatment. As for the experimental part: (§1) The cell viability was assessed using an MTT assay, determining the half-maximal inhibitory concentration (IC50) to screen right-half RT analogs (DH_18, DH_21, DH_32, DH_35, DH_38, and DH_39). Human NSCLC cells (A549, H23, and H292) were seeded in a 96-well cell culture plate at a density of 1 × 10^4 cells per well and incubated for 24 h at 37 °C. Subsequently, the culture medium was aspirated, and a complete medium with varying concentrations (0–100 μM) of right-half RT analogs was added for 24 h. Following the removal of the compound-containing medium, an MTT reagent at a concentration of 4 mg/mL was applied and incubated for 3 h at 37 °C. The MTT reagent was replaced with 100 μL of DMSO to dissolve the formazan crystals. The measurement of the formazan product was conducted at 570 nm utilizing a microplate reader. RT served as the positive control in this experiment.
Background: Tetrazolium assays rely on reduction of a dye to a coloured formazan, in cell work by metabolically active cells.

The test system of test [2] is H23 cells. As to the kind of experiment: MTT cell viability assay. It counts as cell-based, human. As for the experimental part: as §1
In test [3] the test system is H292 cells. The test can be described thus: MTT cell viability assay. The class given is cell-based, human. As for the experimental part: as §1
Test [4] concerns human dermal papilla cells (DP). As to the kind of experiment: MTT cell viability assay, normal cells. To be noted: for IC50: DP normal cells, 24 h treatment, MTT. The class given is cell-based.
For the next test, the system named is BEAS2B cells. The test can be described thus: MTT cell viability assay, normal cells. The class given is cell-based, human. The conditions noted are these: for IC50: BEAS2B normal cells, 24 h treatment, MTT.
The subject of test [5] is A549 cells. As to the kind of experiment: Nuclear staining assay (Hoechst 33342/PI). It counts as cell-based, human. The conditions noted are these: A549, 0.5 μM, 24 h; for percentage of apoptosis: Hoechst 33342; for percentage of dead cells: PI staining. As for the experimental part: (§2) The assessment of apoptosis and dead cell counts was performed through costaining with Hoechst 33342 and propidium iodide (PI). Human NSCLCs (1 × 10^4 cells per well) were seeded in a 96-well plate, incubated at 37 °C, and exposed to all right-half RT analogs at a concentration of 0.5 μM. After treatment, the cells were rinsed with PBS and subjected to co-staining with Hoechst 33342 (10 μg/mL) and propidium iodide (PI) (0.02 μg/mL) for 30 min at 37 °C. Fluorescence microscopy (Olympus 1X51 with a DP70 digital camera, Tokyo, Japan) was utilized to observe the fragmented nuclei indicative of apoptotic cells stained with Hoechst 33342 and the positive PI staining for dead cells. Subsequently, the percentages of apoptosis and dead cells were calculated. In this experiment, RT at a concentration of 0.5 μM served as the positive control.

For test [6], the system named is H23 cells. The test can be described thus: Nuclear staining assay (Hoechst 33342/PI). To be noted: H23, 0.5 μM, 24 h; for percentage of apoptosis: Hoechst 33342; for percentage of dead cells: PI staining. The class given is cell-based, human. As for the experimental part: as §2
In test [7] the test system is H292 cells. The test can be described thus: Nuclear staining assay (Hoechst 33342/PI). The class given is cell-based, human. To be noted: H292, 0.5 μM, 24 h; for percentage of apoptosis: Hoechst 33342; for percentage of dead cells: PI staining. As for the experimental part: as §2
Test [8] has as its system CSC spheroids of A549, H23, and H292 cells. The test can be described thus: 3D CSC spheroid formation with immunofluorescence. It counts as cell-based, human. The conditions noted are these: 50 nM; for levels of CD133, CD44, and OCT4 in CSC spheroids: 24 h, immunofluorescence. As for the experimental part: A three-dimensional (3D) spheroid was employed to generate the spheroids containing CSC subpopulations from lung cancer cells. For CSC-rich population establishment, the spheroid culture assay used in this study was slightly modified from a previously described method. Lung cancer cells, specifically NSCLC cells (A549, H23, and H292), were seeded onto a 24-well ultra-low attachment plate, with approximately density of 2.5 × 10^3 cells per well in a medium with a 1% FBS and Nutristem mix. The primary spheroids were allowed to form for 7 days. Every 2 days, fresh medium with 1% FBS and Nutristem mix was replenished. On day 7 of primary spheroid culture, primary spheroids were resuspended into single cells using trypsin, and again 2.5 × 10^3 cells/well were seeded into a 24-well ultra-low attachment plate. Secondary spheroids were allowed to form for 10 days. After 10 days, the secondary spheroids were treated with 50 nM concentration DH_32 for 24 h treatment. The spheroids that had undergone treatment were retrieved through centrifugation at 1000× g for 30 s and then rinsed with PBS. The spheroids were fixed with 4% paraformaldehyde in a 50 μL PBS solution for 20 min at room temperature, and then they were made permeable by treating them with 0.1% Triton X in PBS for 5 min at room temperature. The spheroids were exposed to a mixture of 5% FBS and 2% BSA in PBS for 1 h at room temperature to prevent non-specific protein interactions. Subsequently, the spheroids were incubated with primary antibodies (CD133, CD44, and OCT4) at a 1:250 dilution in a 30 μL PBS solution containing 2.5% FBS and 1% BSA, and this incubation took place overnight at 4 °C. On the subsequent day, the spheroids were rinsed with PBS and then exposed to secondary antibodies (Alexa Fluor 594-conjugated goat anti-rabbit IgG (H+L) and Alexa Fluor 488-conjugated goat anti-mouse IgG (H+L)) at a 1:500 dilution in a 30 μL PBS solution containing 2.5% FBS and 1% BSA at room temperature for 1 h 30 min. These spheroids were subjected to staining with Hoechst 33342 (Sigma, St. Louis, MO, USA) at a concentration of 10 μg/mL for a duration of 15 min at room temperature. Subsequently, the fluorescence signals were observed using a fluorescence microscope (Olympus IX 51 with DP70; Olympus America Inc., Center Valley, PA, USA). The intensity of fluorescence was quantified using Image J software. NSCLC spheroids treated with RT at 50 nM and cisplatin at 50 nM served as the positive control.

Test [9] relates to A549 cells. As to the kind of experiment: Proliferation assay (MTT). It counts as cell-based, human. As for the experimental part:
(§3) An MTT assay was employed to evaluate the antiproliferative impact of the right-half RT analog, DH_32, over a period of three consecutive days. The human NSCLC cells lines A549, H23, and H292 were seeded at a cell density of 2 × 10^3 cells per well in a 96-well plate. The cells were exposed to low concentrations (0, 25, 50, and 100 nM) of DH_32 at various time points (0 h, 24 h, 48 h, and 72 h) and then incubated under 5% CO2 at 37 °C. Subsequently, the cell viability was assessed using an MTT assay at 0 h, 24 h, 48 h, and 72 h. The percentage of cell proliferation was determined by dividing the optical density (OD) of the cells at each time point by the OD of the non-treated control cells. In this experiment, RT served as the positive control.

The subject of test [10] is H23 cells. As to the kind of experiment: Proliferation assay (MTT). The conditions noted are these: H23, 24 h, 25 nM. The class given is cell-based, human. As for the experimental part:
as §3

The subject of test [11] is H292 cells. As to the kind of experiment: Proliferation assay (MTT). To be noted: H292, 24 h, 25 nM. The class given is cell-based, human. As for the experimental part: as §3
Setting [12] is: A549, 48 h, DH_32 25, 50, and 100 nM, RT 25 and 50 nM.

Consider `COC1=C(C)C(=O)C2=C(C1=O)[C@@H]1CN(Cc3ccc4ccccc4c3)[C@@H](C#N)[C@H](C2)N1C` [DH_32, (1R,4R,5S)-9-methoxy-8,11-dimethyl-3-(naphthalen-2-ylmethyl)-7,10-dioxo-1,2,3,4,5,6,7,10-octahydro-1,5-epiminobenzo[d]azocine-4-carbonitrile], for which the IC50 came out at 4.06 ± 0.24 µM in the test on A549 cells [1] (Homo sapiens); 2.07 ± 0.11 µM in the test on H23 cells [2] (Homo sapiens, NCI-H23, H23, 24 h treatment); 1.46 ± 0.06 µM in the test on H292 cells [3] (Homo sapiens, NCI-H292, H292, 24 h treatment); 34.2 ± 1.22 µM in [4] (Homo sapiens, Human dermal papilla cell); 5.06 ± 0.22 µM with BEAS2B cells (Homo sapiens, BEAS-2B). Besides, the “selectivity index (SI)” value in [4] (DP cells versus A549) was found to be 8.42; in test [4] (DP cells versus H23), 16.51; in test [4] (DP cells versus H292) it was 23.40; in the test with BEAS2B cells (BEAS2B cells versus A549) it was 1.25; with BEAS2B cells (BEAS2B cells versus H23), 2.44; in the test with BEAS2B cells (BEAS2B cells versus H292), 3.47. Also, the percentage of apoptosis turned out to be 29.33 ± 0.51% in the test with A549 cells [5], 39.29 ± 1.88% in the test on H23 cells [6] and 34.13 ± 0.97% with H292 cells [7]. The “percentage of dead cells” value with A549 cells [5] was determined as 23.38 ± 0.96%; in the test on H23 cells [6], 35.07 ± 1.67%; in the test on H292 cells [7], 29.82 ± 1.26%. In addition, the “size of spheroid formations” value in test [8] is on record as “decreased”. The “levels of CD133, CD44, and OCT4 in CSC spheroids” value in test [8] was “dramatic decrease”. The proliferation rate entry with A549 cells [9] (A549, 24 h, 50 and 100 nM) is “decreased proliferation rate”; in the test on A549 cells [9] (setting [12]), “significant reduction in cell proliferation”; in the test with H23 cells [10], “substantial reduction in the proliferation rate”; in the test on H292 cells [11] it was “substantial reduction in the proliferation rate”.

Consider `CC=C(C)C(=O)OCC1c2c(c(O)c(C)c3c2OCO3)CC2C3C4=C(CC(C(C#N)N12)N3C)C(=O)C(C)=C(OC)C4=O` (stereo not drawn) [RT, Renieramycin T], for which the IC50 in the test with A549 cells [1] was determined as 5.76 ± 0.23 µM; in the test with H23 cells [2] (H23, 24 h treatment) it was 2.93 ± 0.07 µM; in the test on H292 cells [3] (H292, 24 h treatment), 1.52 ± 0.05 µM; in test [4] it was 13.7 ± 0.33 µM; with BEAS2B cells it was 1.18 ± 0.02 µM. Besides, the percentage of apoptosis in the test with A549 cells [5] was 24.95 ± 1.32%; in the test on H23 cells [6], 33.41 ± 0.53%; with H292 cells [7] it was 29.63 ± 0.47%. Further, the “percentage of dead cells” value in the test with A549 cells [5] was found to be 21.60 ± 0.99%; in the test with H23 cells [6], 31.15 ± 0.48%; in the test with H292 cells [7], 26.31 ± 1.04%. Moreover, the “levels of CD133, CD44, and OCT4 in CSC spheroids” value in test [8] was “lesser effects”. Besides, the proliferation rate entry is listed as “did not affect the proliferation” in the test with A549 cells [9] (A549, 24 h, 50 and 100 nM); “did not exhibit any effect” with A549 cells [9] (setting [12]); “did not exhibit any change in their proliferation rate” with H23 cells [10]; “did not exhibit any change in their proliferation rate” with H292 cells [11].
